Experimental data: patent publication US20230248037A1, “FLAVOUR ADDITIVES” (MARS, INCORPORATED, priority 2012, published 2023)

What follows are compounds tested on cats (assay: 2-bottle choice difference test of tastant solutions in water, intake by cats). Settings: amino acids of the second group.
Set-up: species or system cat
Protocol: Cats were allowed access to water containing either 25 mM proline+25 mM histidine with a composition comprising 50 mM histidine. The methodology used a 2-bottle choice test with 24 cats (the final number of cats for each test can vary due to data being discarded by spillage, etc.). Cats were housed individually during trial periods and had free access to water available between testing periods. The test involved a choice test between the tastant/mixture at a given concentration dissolved in deionised water versus deionised water only or another tastant/mixture. Control was made for positional bias (e.g. A/B exposure 1 and B/A exposure 2) and evaporation loss. The testing time was 36 hours (i.e. 18 hours per day, allowing a two-day crossover). Following two consecutive days of each testing, cats had two consecutive days of rest. Cats were offered a dry diet as a single meal at the start of the test period for one hour, calculated to meet the individual requirements for each cat.
With `O=C(O)[C@@H]1C[C@@H](O)CN1` [hydroxyproline] the “acceptance (flavour effect) in in vivo tests” value (“acceptance (flavour effect)” below) was “positive acceptance”. In the case of `NC(=O)CC[C@H](N)C(=O)O` [glutamine], the “acceptance (flavour effect)” value is reported as “positive acceptance”. For `NCCCC[C@H](N)C(=O)O` [lysine], the “acceptance (flavour effect)” value was “positive acceptance”. For `CC[C@H](C)[C@H](N)C(=O)O` [isoleucine], the “acceptance (flavour effect)” value was “positive acceptance”. For `N[C@@H](CCC(=O)O)C(=O)O` [glutamic acid], the “acceptance (flavour effect)” value was “positive acceptance”. For `CC(C)[C@H](N)C(=O)O` [valine], the “acceptance (flavour effect)” value was “positive acceptance”. For `N[C@@H](CC(=O)O)C(=O)O` [aspartic acid], the “acceptance (flavour effect)” value was “positive acceptance”. For `O=C(O)[C@@H]1CCCN1` [proline], the “acceptance (flavour effect)” value was “positive acceptance”. For `N[C@@H](CSSC[C@H](N)C(=O)O)C(=O)O` [cystine], the “acceptance (flavour effect)” value was “positive acceptance”. For `NCCC[C@H](N)C(=O)O` [ornithine], the “acceptance (flavour effect)” value was “positive acceptance”. In the case of `C[C@@H](O)[C@H](N)C(=O)O` [threonine], the “acceptance (flavour effect)” value is reported as “positive acceptance”.

The compounds below were run on T1R1/T1R3 receptor (umami receptor) (assay: In vitro screening for binding and activation of the umami receptor). Settings: feline umami receptor.
Type: cell-based, cat
Protocol: In vitro screening was carried out in order to establish which first amino acids bind and activate the umami receptor.
In vitro screening was carried out in order to establish which second amino acids bind and activate the umami receptor.
In the case of `N[C@@H](CCC(=O)O)C(=O)O` [glutamic acid], the “binding to the feline umami receptor” value is reported as “does not bind”. `N[C@@H](CC(=O)O)C(=O)O` [aspartic acid] was tested, and the “binding to the feline umami receptor” value was “does not bind”.

Same assay, conditions: in silico modelling and in vitro assays using a non-human umami receptor; screening in the presence of 0.2 mM IMP
For `CC(C)C[C@H](N)C(=O)O` [leucine], the “binding to and activation of the umami receptor” value (“binding to and activation” for short) was “able to bind to and activate the umami receptor to different extents”. For `N[C@@H](CS)C(=O)O` [cysteine], the “binding to and activation” value was “able to bind to and activate the umami receptor to different extents”. For `C[C@H](N)C(=O)O` [alanine], the “binding to and activation” value was “able to bind to and activate the umami receptor to different extents”. `NCC(=O)O` [glycine] was tested, and the “binding to and activation” value was “able to bind to and activate the umami receptor to different extents”. With `N[C@@H](Cc1c[nH]cn1)C(=O)O` [histidine] the “binding to and activation” value was “able to bind to and activate the umami receptor to different extents”. For `NC(=O)C[C@H](N)C(=O)O` [asparagine], the “binding to and activation” value was “able to bind to and activate the umami receptor to different extents”. With `N[C@@H](Cc1ccccc1)C(=O)O` [phenylalanine] the “binding to and activation” value was “able to bind to and activate the umami receptor to different extents”. In the case of `N[C@@H](CO)C(=O)O` [serine], the “binding to and activation” value is reported as “able to bind to and activate the umami receptor to different extents”. `N[C@@H](Cc1ccc(O)cc1)C(=O)O` [tyrosine] was tested, and the “binding to and activation” value was “able to bind to and activate the umami receptor to different extents”. With `N[C@@H](Cc1c[nH]c2ccccc12)C(=O)O` [tryptophan] the “binding to and activation” value was “able to bind to and activate the umami receptor to different extents”. With `CSCC[C@H](N)C(=O)O` [methionine] the “binding to and activation” value was “able to bind to and activate the umami receptor to different extents”.
